Earlier results, collected in patent publication US20230025286A1, “PHARMACEUTICAL COMPOSITION COMPRISING ELTROMBOPAG BIS(MONOETHANOLAMINE)” (SYNTHON B.V., priority 2019, published 2023).

Legend:
[1] = background statement, no method or value given
[2] = background statement, no method or value given; remark: listed apart in the source

Q: Which results are given for CC1=NN(c2ccc(C)c(C)c2)C(=O)/C1=N\Nc1cccc(-c2cccc(C(=O)O)c2)c1O.NCCO.NCCO [Eltrombopag bis(monoethanolamine), 3′-{(2Z)-2-[1-(3,4-dimethylphenyl)-3-methyl-5-oxo-1,5-dihydro-4H-pyrazol-4-ylidene]hydrazino}-2′-hydroxy-3-biphenylcarboxylic acid bis(monoethanolamine)]?
A: permeability [1]: medium; solubility [2]: low
